Data published in US4855320A, “5-arylalkyl-4-alkoxy-2(5H)-furanones, intermediates and processes for the preparation thereof and medicaments containing them” (Dr. Willmar Schwabe GmbH & Company, priority 1986, dated 1989).

Test system: maximum electroshock spasm (MES) in male mice (NMRI)
Assay: MES test (maximum electroshock spasm), inhibition of the extensor spasm
Format: in vivo
Conditions: Mus musculus, mice; for responders at 100 mg/kg: 100 mg/kg p.o., % of animals protected 100% against the extensor spasm; for ED50: oral, 1 hour after administration, read-out: ED 50 in the MES test; for responders at 50 mg/kg: 50 mg/kg p.o.
[1] = po, 1 hr., read-out: protective action after 1 hr. (MES test)

Row | SMILES | responders at 100 mg/kg [1] | also measured
1 | CCOC1=CC(=O)O[C@H]1[C@H](O)c1ccccc1Cl (relative stereo) [Example 66, threo-5-(2-chlorophenylhydroxymethyl)-4-ethoxy-2(5H)-furanone] | 100% | 
2 | COC1=CC(=O)O[C@H]1[C@H](O)c1ccc(Cl)cc1 (relative stereo) [Example 67, threo-5-(4-chlorophenylhydroxymethyl)-4-methoxy-2(5H)-furanone] | 75% | ED50: 73.5 mg/kg
3 | COC1=CC(=O)O[C@H]1[C@H](O)c1ccccc1Br (relative stereo) [Example 68, threo-5-(2-bromophenylhydroxymethyl)-4-methoxy-2(5H)-furanone] | 100% | ED50: 23.5 mg/kg
4 | COC1=CC(=O)O[C@H]1[C@H](O)c1cccc(Br)c1 (relative stereo) [Example 69, threo-5-(3-bromophenylhydroxymethyl)-4-methoxy-2(5H)-furanone] | 70% | ED50: 93 mg/kg
5 | COC1=CC(=O)O[C@H]1[C@H](O)c1ccccc1F (relative stereo) [Example 70, threo-5-(2-fluorophenylhydroxymethyl)-4-methoxy-2(5H)-furanone] | 100% | ED50: 22 mg/kg
6 | COC1=CC(=O)O[C@H]1[C@H](O)c1ccccc1C(F)(F)F (relative stereo) [Example 71, threo-4-methoxy-5-(2-trifluoromethylphenylhydroxymethyl)-2-(5H)-furanone] | 100% | 
7 | COC1=CC(=O)O[C@H]1[C@H](O)c1cccc(C(F)(F)F)c1 (relative stereo) [Example 72, threo-4-methoxy-5-(3-trifluoromethylphenylhydroxymethyl)-2(5H)-furanone] | 80% | 
8 | COC1=CC(=O)O[C@H]1[C@H](O)c1ccc(C(F)(F)F)cc1 (relative stereo) [Example 73, threo-4-methoxy-5-(4-trifluoromethylphenylhydroxymethyl)-2(5H)-furanone] | 60% | 
9 | COC1=CC(=O)O[C@H]1[C@H](O)c1ccccc1[N+](=O)[O-] (relative stereo) [Example 74, threo-4-methoxy-5-(2-nitrophenylhydroxymethyl)-2(5H)-furanone] | 100% | 
10 | CCOC1=CC(=O)O[C@H]1[C@H](O)c1ccc(Cl)cc1Cl (relative stereo) [Example 80, threo-5-(2,4-dichlorophenylhydroxymethyl)-4-ethoxy-2(5H)-furanone] | 90% | 
11 | CCOC1=CC(=O)O[C@H]1[C@H](O)c1cc(Cl)ccc1Cl (relative stereo) [Example 82, threo-5-(2,5-dichlorophenylhydroxymethyl)-4-ethoxy-2(5H)-furanone] |  | responders at 150 mg/kg (po, 150 mg/kg p.o., 1 hr., read-out: protective action after 1 hr. (MES test)): 90%
12 | COC1=CC(=O)O[C@H]1[C@H](O)c1ccc(Cl)c(Cl)c1 (relative stereo) [Example 83, threo-5-(3,4-dichlorophenylhydroxymethyl)-4-methoxy-2(5H)-furanone] | 50% | 
13 | COC1=CC(=O)O[C@H]1[C@H](O)c1cc(Cl)cc(Cl)c1 (relative stereo) [Example 84, threo-5-(3,5-dichlorophenylhydroxymethyl)-4-methoxy-2(5H)-furanone] | 70% | 
14 | COC1=CC(=O)O[C@H]1[C@H](O)c1cc(C(F)(F)F)ccc1Cl (relative stereo) [Example 86] |  | responders at 50 mg/kg [1]: 100%
15 | COC1=CC(=O)O[C@H]1[C@H](O)c1ccc(Cl)cc1C(F)(F)F (relative stereo) [Example 87, threo-5-[(4-chloro-2-trifluoromethylphenyl)-hydroxymethyl]-4-methoxy-2(5H)-furanone] | 40% | 
16 | COC1=CC(=O)O[C@H]1[C@H](O)c1ccc(Br)cc1Cl (relative stereo) [Example 88, threo-5-[(4-bromo-2-chlorophenyl)-hydroxymethyl]-4-methoxy-2(5H)-furanone] | 80% | 
17 | COC1=CC(=O)O[C@@]1(C)[C@H](O)c1ccccc1Cl (relative stereo) [Example 89, threo-5-(2-Chlorophenylhydroxymethyl)-4-methoxy-5-methyl-2(5H)-furanone] | 100% | 
18 | COC1=CC(=O)O[C@H]1[C@H](O)c1ccccc1C (relative stereo) [Example 93, threo-4-methoxy-5-(2-methylphenylhydroxymethyl)-2(5H)-furanone] | 37.5% | 
19 | COC1=CC(=O)O[C@H]1[C@H](O)c1cccc(F)c1 (relative stereo) [Example 96, threo-5-(3-fluorophenylhydroxymethyl)-4-methoxy-2-(5H)-furanone] | 62.5% | ED50: 74 mg/kg
20 | COC1=CC(=O)O[C@H]1[C@H](O)c1cccc(Cl)c1 (relative stereo) [Example 98, threo-5-(3-chlorophenylhydroxymethyl)-4-methoxy-2(5H)-furanone] | 25% | ED50: 84.5 mg/kg

Row | SMILES | responders at 100 mg/kg [1] | also measured
21 | CCCOC1=CC(=O)O[C@H]1[C@H](O)c1ccccc1Cl (relative stereo) [Example 99, threo-5-(2-chlorophenylhydroxymethyl)-4-propoxy-2-(5H)-furanone] | 90% | 
22 | COC1=CC(=O)O[C@H]1[C@H](O)c1ccc(Br)cc1 (relative stereo) [Example 100, threo-5-(4-bromophenylhydroxymethyl)-4-methoxy-2(5H)-furanone] | 100% | ED50: 67 mg/kg
23 | COC1=CC(=O)O[C@H]1[C@H](O)c1c(F)cccc1Cl (relative stereo) [Example 102, threo-5-(2-chloro-6-fluorophenylhydroxymethyl)-4-methoxy-2(5H)-furanone] | 62.5% | 
24 | COC1=CC(=O)O[C@H]1[C@H](O)c1c(Cl)cccc1Cl (relative stereo) [Example 103, threo-5-(2,6-dichlorophenylhydroxymethiyl)-4-methoxy-2(5H)-furanone] | 100% | ED50: 37 mg/kg
25 | COC1=CC(=O)O[C@H]1[C@H](O)CCc1ccccc1 (relative stereo) [Example 105, threo-4-methoxy-5-(α-hydroxy-γ-phenylpropyl)-2(5H)-furanone] | 12.5% | 
26 | CCOC1=CC(=O)O[C@H]1[C@H](OC)c1ccc(Cl)cc1Cl (relative stereo) [Example 106, threo-4-Ethoxy-5-[methoxy-(2,4-dichlorophenyl)-methyl]-2(5H)-furanone] | 30% | 
27 | COCO[C@H](c1ccccc1Cl)[C@@H]1OC(=O)C=C1OC (relative stereo) [Example 107, threo-4-Methoxy-5-[methoxymethoxy-(2-chlorophenyl)-methyl]-2(5H)-furanone] | 100% | ED50: 24.5 mg/kg
28 | COCCOCO[C@H](c1ccccc1Cl)[C@@H]1OC(=O)C=C1OC (relative stereo) [Example 108, threo-4-Methoxy-5-[methoxyethoxymethoxy-(2-chlorophenyl)-methyl]-2(5H)-furanone] | 70% | 
29 | COC1=CC(=O)O[C@H]1[C@H](OC)c1ccccc1 (relative stereo) [Example 109, threo-4-methoxy-5-[methoxy-(phenyl)-methyl]-2(5H)-furanone] | 40% | 
30 | COC1=CC(=O)O[C@H]1[C@H](OC)c1ccccc1Cl (relative stereo) [Example 110, threo-4-methoxy-5-[methoxy-(2-chlorophenyl)-methyl]-2(5H)-furanone] | 100% | ED50: 27.5 mg/kg
31 | COC1=CC(=O)O[C@H]1[C@H](OC)c1ccc(Cl)cc1Cl (relative stereo) [Example 111, threo-4-methoxy-5-[methoxy-(2,4-dichlorophenyl)-methyl]-2(5H)-furanone] | 100% | 
32 | COC1=CC(=O)O[C@H]1[C@H](OC)c1cc(Cl)ccc1Cl (relative stereo) [Example 112, threo-4-methoxy-5-[methoxy-(2,5-dichlorophenyl)-methyl]-2(5H)-furanone] | 100% | 
33 | COCO[C@H](c1ccccc1)[C@@H]1OC(=O)C=C1OC (relative stereo) [Example 113, threo-4-methoxy-5-[methoxymethoxy-(phenyl)-methyl]-2(5H)-furanone] | 100% | 
34 | COCO[C@H](c1ccc(Cl)cc1Cl)[C@@H]1OC(=O)C=C1OC (relative stereo) [Example 114, threo-4-methoxy-5-[methoxymethoxy-(2,4-dichlorophenyl)-methyl]-2(5H)-furanone] | 10% | 
35 | COCO[C@H](c1ccccc1F)[C@@H]1OC(=O)C=C1OC (relative stereo) [Example 115, threo-4-methoxy-5-[methoxymethoxy-(2-fluorophenyl)-methyl]2(5H)-furanone] | 100% | 
36 | COCO[C@H](c1ccccc1C)[C@@H]1OC(=O)C=C1OC (relative stereo) [Example 116, threo-4-methoxy-5-[methoxymethoxy-(2-methylphenyl)-methyl]-2(5H)-furanone] | 70% | 
37 | COCO[C@H](c1ccccc1Br)[C@@H]1OC(=O)C=C1OC (relative stereo) [Example 118, threo-4-methoxy-5-[methoxymethoxy-(2-bromophenyl)-methyl]-2(5H)-furanone] | 100% | 
38 | COC1=CC(=O)O[C@H]1[C@H](OC)c1ccccc1F (relative stereo) [Example 123, threo-4-methoxy-5-[methoxy-(2-fluorophenyl)-methyl]-2(5H)-furanone] |  | responders at 50 mg/kg [1]: 100%
39 | COC1=CC(=O)O[C@H]1[C@H](OC)c1ccccc1Br (relative stereo) [Example 124, threo-4-methoxy-5-[methoxy-(2-bromophenyl)-methyl]-2(5H)-furanone] |  | responders at 50 mg/kg [1]: 100%
40 | COCC(OC)O[C@H](c1ccccc1Cl)[C@@H]1OC(=O)C=C1OC (stereo partly drawn) [Example 121, threo-5-[1',2'-dimethoxyethoxy-(2-chlorophenyl)-methyl]-4-methoxy-2(5H)-furanone] |  | responders at 50 mg/kg [1]: 70%
